Values quoted from earlier work in patent US20030129242A1, “Sterile filtered nanoparticulate formulations of budesonide and beclomethasone having tyloxapol as a surface stabilizer” (priority 2002, published 2003).

## CCCC1O[C@@H]2C[C@H]3C4CCC5=CC(=O)C=CC5(C)[C@H]4[C@@H](O)CC3(C)C2(C(=O)CO)O1 (mixture of isomers) [Budesonide, (RS)-11,16, 17,21-Tetrahydroxy-pregna-1,4-diene-3,20-dione cyclic 16,17-acetal with butraldehyde]
chloroform
  solubility in chloroform: freely soluble
ethanol
  solubility in ethanol: sparingly soluble
heptane
  solubility in heptane: practically insoluble
  solubility in water: practically insoluble

## CC1(C)O[C@@H]2C[C@H]3[C@@H]4C[C@H](F)C5=CC(=O)C=C[C@]5(C)[C@H]4[C@@H](O)C[C@]3(C)[C@]2(C(=O)CO)O1 [Flunisolide, 6α-fluoro-11β, 16α, 17,21-tetrahydroxy-pregna-1,4-diene-3,20-dione cyclic-16,17-acetal with acetone]
  solubility in water: practically insoluble
